# Reference: US10701936B2, “Herbicidal composition and method for controlling weeds” (Sumitomo Chemical Company, Limited, priority 2016, dated 2020)
# Assays:
# [1] = system: Setaria faberi; assay: Herbicidal effect, foliar spray pot test in greenhouse (Example 102); type: in vivo; details: sprayed at 2-3 leaf stage, a week after, scale 0-100
# Protocol: (§1) A plastic pot was filled with a commercially-available culture soil, and thereto inubie (common barnyardgrass; Echinochloa crus-galli) or akinoenokorogusa (giant foxtail; Setaria faberi) was seeded, and covered with the soil to about 0.5 cm, followed by growing the weeds in a greenhouse. When the weeds grew to two to three leaf stage, a spray liquid of the compound X, a spray liquid of 2,4-D choline salt, or a spray liquid of the present composition was uniformly sprayed to the whole plants so that the application rate might be a predetermined value. The spray liquid of the present composition was prepared by mixing the spray liquid of the compound X with the spray liquid of 2,4-D choline salt. The spray liquid of the compound X was prepared by mixing a predetermined amount of the formulation X with deionized water. The spray liquid of 2,4-D choline salt was prepared by dissolving 2,4-D choline salt with a 2 wt % solution of TWEEN® 20 (polyoxyethylenesorbitan fatty acid ester, manufactured by MP Biomedicals) in dimethylformamide, followed by mixing with deionized water. After applying the spray liquid, the plants were placed in a greenhouse for a week. A herbicidal effect was evaluated by classifying the effect into 101 stages from 0 (no effect) to 100 (completely dead).
# (§2) The expected value of the herbicidal effect in the case of mixed use was calculated from the result of the herbicidal effect in the case of single use of each of the compounds (the value of A or B) according to the formula of Colby ((expected value)=100−(100−A)×(100−B)/100).
# [2] = system: Echinochloa crus-galli; assay: as above; type: in vivo; details: sprayed at 2-3 leaf stage, a week after, scale 0-100
# Protocol: as §1, §2
# [3] = 2,4-D choline salt 50 g/ha alone
# [4] = 2,4-D choline salt 500 g/ha alone
SMILES,"Herbicidal effect on Setaria faberi (observed value) [1, 3]","Herbicidal effect on Setaria faberi (observed value) [1, 4]","Herbicidal effect on Echinochloa crus-galli (observed value) [2, 3]","Herbicidal effect on Echinochloa crus-galli (observed value) [2, 4]",Herbicidal effect on Setaria faberi (observed value) ([1]; Compound X 5 g/ha alone),Herbicidal effect on Setaria faberi (observed value) ([1]; Compound X 10 g/ha alone),Herbicidal effect on Echinochloa crus-galli (observed value) ([2]; Compound X 5 g/ha alone),Herbicidal effect on Echinochloa crus-galli (observed value) ([2]; Compound X 10 g/ha alone)
"C[N+](C)(C)CCO.O=C([O-])COc1ccc(Cl)cc1Cl [2,4-D choline salt]",0,10,0,10,–,–,–,–
"CCOC(=O)COc1ncccc1Oc1cc(-n2c(=O)cc(C(F)(F)F)n(C)c2=O)c(F)cc1Cl [Compound X, ethyl [3-[2-chloro-4-fluoro-5-(1-methyl-6-trifluoromethyl-2,4-dioxo-1,2,3,4-tetrahydropyrimidin-3-yl)phenoxy]-2-pyridyloxy]acetate]",–,–,–,–,30,45,20,35
